Test results published in ChEMBL document CHEMBL5584244, “Discovery of novel pyrrolo[2,1-c][1,4]benzodiazepine-3,11-dione (PBD) derivatives as selective HDAC6 inhibitors for the efficient treatment of idiopathic pulmonary fibrosis (IPF) in vitro and in vivo” (Eur J Med Chem, 2024).
Calls of active or inactive are those of the source. The rule behind the calls is not given here.

Experiments:
[1] = system: Mus musculus; assay: Anti-pulmonary fibrosis activity in bleomycin-induced C57BL/6 mouse model of pulmonary fibrosis assessed as decrease structural damage in lung at 50 to 100 mg/kg, ip for 3 weeks by H and E staining based fluorescence microscopic analysis; format: functional, organism-based; settings: dose 50-100 mg/kg
[2] = system: Mus musculus; assay: Anti-pulmonary fibrosis activity in bleomycin-induced ip dosed C57BL/6 mouse model of pulmonary fibrosis assessed as inhibition of Smad3 protein phosphorylation level in lung at for 3 weeks by immunohistochemical analysis; format: functional, organism-based; settings: dose 50-100 mg/kg
[3] = biological target: T1, TGF-beta receptor type-1 (Homo sapiens) (UniProt P36897); assay: Inhibition of TGF-beta1-induced TGFbetaR1 protein phosphorylation level in HELF cells incubated for 48 hrs by Western blot analysis; format: cell-based; settings: dose 2.5-10 µM
T1 sequence (whole entry): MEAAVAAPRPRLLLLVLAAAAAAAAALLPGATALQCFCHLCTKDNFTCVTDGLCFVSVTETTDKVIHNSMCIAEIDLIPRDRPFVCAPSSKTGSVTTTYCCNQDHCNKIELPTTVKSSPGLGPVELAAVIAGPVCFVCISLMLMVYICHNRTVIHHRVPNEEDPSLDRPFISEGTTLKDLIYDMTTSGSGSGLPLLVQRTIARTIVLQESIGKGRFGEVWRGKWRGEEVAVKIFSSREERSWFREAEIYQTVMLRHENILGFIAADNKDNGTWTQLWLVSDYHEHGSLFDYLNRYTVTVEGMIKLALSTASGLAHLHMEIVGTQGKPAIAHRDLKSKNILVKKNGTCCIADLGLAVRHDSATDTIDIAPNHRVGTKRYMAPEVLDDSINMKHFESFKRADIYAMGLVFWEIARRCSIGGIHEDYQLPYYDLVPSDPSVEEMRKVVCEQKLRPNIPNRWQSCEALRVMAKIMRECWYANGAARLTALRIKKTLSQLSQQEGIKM

[4] = biological target: T2, Polyamine deacetylase HDAC10 (Homo sapiens, UniProt Q969S8); assay: Inhibition of N-terminal FLAG-tagged recombinant human HDAC10 (2 to 631 residues) expressed in baculovirus sf9 insect cells expression system using Boc-Lys (Ac)-AMC as substrate incubated for 120 mins by fluorescence analysis
T2 sequence (Q969S8 whole entry): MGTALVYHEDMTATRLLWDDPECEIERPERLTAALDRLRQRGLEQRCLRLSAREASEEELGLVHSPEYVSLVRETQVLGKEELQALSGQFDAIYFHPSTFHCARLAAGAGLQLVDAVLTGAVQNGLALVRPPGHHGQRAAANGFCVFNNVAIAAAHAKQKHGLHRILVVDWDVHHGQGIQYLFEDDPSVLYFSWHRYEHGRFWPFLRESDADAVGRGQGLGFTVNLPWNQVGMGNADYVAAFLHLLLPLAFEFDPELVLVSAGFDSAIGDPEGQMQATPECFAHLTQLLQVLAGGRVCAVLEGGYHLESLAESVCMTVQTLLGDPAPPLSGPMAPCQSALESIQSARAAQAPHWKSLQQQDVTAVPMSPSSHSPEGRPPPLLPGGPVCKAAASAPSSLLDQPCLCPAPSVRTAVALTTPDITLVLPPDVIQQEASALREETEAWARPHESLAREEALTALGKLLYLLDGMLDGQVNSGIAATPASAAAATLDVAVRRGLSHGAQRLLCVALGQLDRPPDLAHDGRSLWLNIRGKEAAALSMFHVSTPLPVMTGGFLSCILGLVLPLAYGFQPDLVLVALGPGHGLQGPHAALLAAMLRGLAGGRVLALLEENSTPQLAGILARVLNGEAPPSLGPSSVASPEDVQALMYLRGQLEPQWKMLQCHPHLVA

[5] = Stability of compound in human liver microsomes assessed as remaining parent compound at 100 uM incubated after 60 mins by LC-MS/MS analysis; format: ADME, Microsome; settings: read-out: Stability
[6] = system: Mus musculus; assay: Anti-pulmonary fibrosis activity in bleomycin-induced C57BL/6 mouse model of pulmonary fibrosis assessed as inhibition of HDAC activity in lung at 50 to 100 mg/kg, ip for 3 weeks by fluorescence based microplate reader analysis; format: functional, organism-based; settings: dose 50-100 mg/kg
[7] = system: HELF; assay: Anti-pulmonary fibrosis activity against TGF-beta1-induced HELF cells assessed as reduction in COL1A1 protein expression incubated for 48 hrs by Western blot analysis; format: functional, cell-based; settings: Homo sapiens, dose 2.5-10 µM
[8] = system: Mus musculus; assay: Anti-pulmonary fibrosis activity in bleomycin-induced C57BL/6 mouse model of pulmonary fibrosis assessed as recovering mental state at 50 to 100 mg/kg, ip for 3 weeks; format: functional, organism-based; settings: dose 50-100 mg/kg
[9] = system: Mus musculus; assay: Anti-pulmonary fibrosis activity in bleomycin-induced C57BL/6 mouse model of pulmonary fibrosis assessed as decrease in collapse of the alveolar cavity in lung at 50 to 100 mg/kg, ip for 3 weeks by H and E staining based fluorescence microscopic analysis; format: functional, organism-based; settings: dose 50-100 mg/kg
[10] = system: Mus musculus; assay: Anti-pulmonary fibrosis activity in bleomycin-induced C57BL/6 mouse model of pulmonary fibrosis assessed as decrease in thickening of the alveolar wall in lung at 50 to 100 mg/kg, ip for 3 weeks by Masson trichrome staining based microscopic analysis; format: functional, organism-based; settings: dose 50-100 mg/kg
[11] = Stability of compound in human plasma assessed as remaining parent compound at 2 uM incubated for 120 mins by LC-MS/MS analysis; format: ADME, cell-free; settings: read-out: Stability
[12] = Intrinsic clearance in human liver at 100 uM incubated upto 60 mins by LC-MS/MS analysis; format: ADME, tissue-based; settings: read-out: CLH
[13] = system: Mus musculus; assay: Anti-pulmonary fibrosis activity in bleomycin-induced C57BL/6 mouse model of pulmonary fibrosis assessed as decrease in inflammatory cell infiltration in lung at 50 to 100 mg/kg, ip for 3 weeks by H and E staining based fluorescence microscopic analysis; format: functional, organism-based; settings: dose 50-100 mg/kg
[14] = biological target: Histone deacetylase 1 (Homo sapiens, UniProt Q13547); assay: Inhibition of C-terminal His6/Flag-tagged recombinant human full length HDAC1 using Boc-Lys (Ac)-AMC as substrate incubated for 120 mins by fluorescence analysis
Histone deacetylase 1, sequence (Q13547 whole entry): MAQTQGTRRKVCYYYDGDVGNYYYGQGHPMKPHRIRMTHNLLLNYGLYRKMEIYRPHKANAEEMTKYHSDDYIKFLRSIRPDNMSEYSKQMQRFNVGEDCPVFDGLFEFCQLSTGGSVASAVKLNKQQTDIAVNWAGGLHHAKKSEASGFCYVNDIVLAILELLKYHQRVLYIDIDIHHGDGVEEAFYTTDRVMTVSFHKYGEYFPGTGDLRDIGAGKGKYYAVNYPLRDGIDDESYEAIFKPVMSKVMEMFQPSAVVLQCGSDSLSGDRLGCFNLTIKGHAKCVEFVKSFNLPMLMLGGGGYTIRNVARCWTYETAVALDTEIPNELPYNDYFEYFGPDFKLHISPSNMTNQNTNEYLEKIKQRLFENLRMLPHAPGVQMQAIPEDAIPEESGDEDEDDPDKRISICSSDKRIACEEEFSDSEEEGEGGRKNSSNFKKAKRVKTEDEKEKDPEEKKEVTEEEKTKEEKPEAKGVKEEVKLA

[15] = Stability of compound in human liver microsomes assessed as remaining parent compound at 100 uM incubated after 60 mins in presence of NADPH by LC-MS/MS analysis; format: ADME, Microsome; settings: read-out: Stability
[16] = biological target: Mothers against decapentaplegic homolog 2 (Homo sapiens) (UniProt Q15796); assay: Inhibition of TGF-beta1-induced Smad2 protein phosphorylation level in HELF cells incubated for 48 hrs by Western blot analysis; format: cell-based; settings: dose 2.5-10 µM
Mothers against decapentaplegic homolog 2 (Homo sapiens), sequence (Q15796 whole entry): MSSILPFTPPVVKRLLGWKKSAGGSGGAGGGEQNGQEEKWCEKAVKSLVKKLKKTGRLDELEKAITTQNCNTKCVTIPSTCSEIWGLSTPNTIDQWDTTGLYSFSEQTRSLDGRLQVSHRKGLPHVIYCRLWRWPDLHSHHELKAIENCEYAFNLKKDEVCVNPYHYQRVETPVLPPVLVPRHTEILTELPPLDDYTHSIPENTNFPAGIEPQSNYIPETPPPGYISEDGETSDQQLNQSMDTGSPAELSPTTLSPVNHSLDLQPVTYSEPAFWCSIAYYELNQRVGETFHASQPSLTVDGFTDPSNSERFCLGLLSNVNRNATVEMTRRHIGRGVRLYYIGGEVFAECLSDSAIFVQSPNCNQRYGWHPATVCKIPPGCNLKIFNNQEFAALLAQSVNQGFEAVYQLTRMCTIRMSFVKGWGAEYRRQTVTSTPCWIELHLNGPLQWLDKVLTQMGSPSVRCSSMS

[17] = system: Mus musculus; assay: Anti-pulmonary fibrosis activity in bleomycin-induced ip dosed C57BL/6 mouse model of pulmonary fibrosis assessed as inhibition of alpha-SMA protein expression level in lung for 3 weeks by immunohistochemical analysis; format: functional, organism-based; settings: dose 50-100 mg/kg
[18] = biological target: Histone deacetylase 2 (Homo sapiens, UniProt Q92769); assay: Inhibition of recombinant human full length HDAC2 using Boc-Lys (Ac)-AMC as substrate incubated for 120 mins by fluorescence analysis
Histone deacetylase 2, sequence (Q92769 whole entry): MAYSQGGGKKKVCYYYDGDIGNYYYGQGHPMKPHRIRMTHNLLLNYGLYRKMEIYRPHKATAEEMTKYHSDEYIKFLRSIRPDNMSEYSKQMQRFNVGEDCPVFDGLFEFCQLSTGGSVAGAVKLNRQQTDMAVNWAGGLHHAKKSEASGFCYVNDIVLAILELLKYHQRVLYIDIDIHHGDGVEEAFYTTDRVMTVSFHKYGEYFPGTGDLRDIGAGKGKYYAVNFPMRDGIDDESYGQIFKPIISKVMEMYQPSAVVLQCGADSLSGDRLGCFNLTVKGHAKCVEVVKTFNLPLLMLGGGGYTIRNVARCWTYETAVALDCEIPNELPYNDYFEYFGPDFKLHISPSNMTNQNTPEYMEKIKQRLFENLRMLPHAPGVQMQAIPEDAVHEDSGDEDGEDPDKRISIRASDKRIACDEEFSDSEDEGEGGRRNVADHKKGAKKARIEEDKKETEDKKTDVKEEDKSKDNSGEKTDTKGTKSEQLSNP

- inhibition [3]: Dose-Dependent Effect
- IC50 [4]: 1320 nM
- remaining at 1 h, 100 µM [5]: 77.4%
- remaining at 2 h, 2 µM [11]: 92.3%
- CLint scaled at 100 µM [12]: < 8.6 mL/min/kg
- IC50 [14]: 878 nM
- remaining at 1 h, 100 µM [15]: 95.7%
- inhibition [16]: Dose-Dependent Effect
- IC50 [18]: 3.14 µM
SMILES: CC(=O)O.O=C(NO)c1ccc(CN2C(=O)[C@@H]3CCCN3Cc3ccccc32)cc1
- Activity [1]: Active
- inhibition [2]: Dose-Dependent Effect
- inhibition [6]: Active
- Activity [7]: Dose-Dependent Effect
- Activity [8]: Active
- Activity [9]: Active
- Activity [10]: inactive
- Activity [13]: Active
- inhibition [17]: Dose-Dependent Effect
